From patent US11046710B2, “Sulfonamide compounds” (DAIICHI SANKYO COMPANY, LIMITED, priority 2016, dated 2021) come the findings set out here.

In test [1] the test system is plasma ALP (80-90% containing TNAP). The experiment in a line: Inhibitory test of plasma TNAP activity in B6 mouse. The note with it: oral, dose 1 mg/kg, average 0-6 h after administration. The class given is in vivo. As for the experimental part: After blood sampling from the tail vein using a heparin-treated hematocrit capillary tube (EM Meister Hematocrit Capillary Tube, AS ONE Corp.) (as the sample before compound administration), each test compound suspended in a 0.5% methylcellulose solution (powder purchased from Wako Pure Chemical Industries, Ltd. was adjusted to 0.5% with Otsuka distilled water) was administered orally to the mouse. 1, 2, 4, 6, and 24 hours after the administration, blood was collected from the tail vein using a heparin-treated hematocrit capillary tube to obtain a plasma sample. The plasma sample was added to an assay buffer (1 M Tris, 1 M MgCl2, 20 mM ZnCl2, and water, pH 7.5), and the mixture was left standing for 5 minutes. Then, the absorbance at 405 nm was measured and used as a blank. The substrate pNPP was added to the plasma sample and incubated at room temperature for 180 minutes. Then, the absorbance (ABS: 405 nm) was measured using a microplate reader (model plus 384, Molecular Devices, LLC), and the concentration of produced p-nitrophenol was calculated. The blank was subtracted from all measurement values to calculate TNAP activity at each time point with the TNAP activity of the sample before compound administration defined as 100%. The pharmaceutical effect of the test compound was evaluated by the average inhibition of plasma ALP (80-90% containing TNAP) activity for 6 hours from 0 hour to 6 hour after the administration of the test compound. It was calculated according to the following expression: 100−((plasma ALP activity at 0 hr+plasma ALP activity at 1 hr)*½+(plasma ALP activity at 1 hr+plasma ALP activity at 2 hr)*½+(plasma ALP activity at 2 hr+plasma ALP activity at 4 hr)*2/2+(plasma ALP activity at 4 hr+plasma ALP activity at 6 hr)*2/2)/6 The results are shown in Table 2.

The target of test [2] is human TNAP (Homo sapiens (Human), UniProt P05186). The experiment in a line: Inhibitory test of TNAP activity (pNPP substrate, p-nitrophenol production). The note with it: human TNAP from transfected COS1 culture supernatant, 60 minutes at room temperature. The class given is biochemical. As for the experimental part:
COS1 cells (DS Pharma Biomedical Co., Ltd.) were transfected with human TNAP (OriGene Technologies, Inc.) using Lipofectamine LTX & Plus reagent (Invitrogen Corp.). On the next day, the medium was replaced with a fresh medium, and the cells were cultured in an incubator for 3 days. After 3 days, the culture supernatant was collected and concentrated by centrifugation at 5000 G for 30 minutes using Amicon 14, 10^4 cut (Merck Millipore). The concentrated culture supernatant was dialyzed against 5 L of 50 mM Tris/200 mM NaCl/1 mM MgCl2/20 μM ZnCl2 twice and used as an enzyme source (enzyme solution). The substrate pNPP (ProteoChem Inc.) was adjusted to 3.1 mM with Milli-Q water, and a solution of each test compound dissolved in dimethyl sulfoxide (DMSO; Wako Pure Chemical Industries, Ltd.) by 6 serial dilutions at a 5-fold common ratio from 100 μM, or DMSO was added thereto at a final concentration of 1% by volume. The enzyme solution adjusted to 2 μg/mL with an assay buffer (200 mM Tris/2 mM MgCl2/0.04 mM ZnCl2/0.01% Tween 20) was added in the same amount of the substrate solution and incubated at room temperature for 60 minutes. Then, the absorbance (ABS: 405 nm) was measured using a microplate reader (model plus 384, Molecular Devices, LLC), and the concentration of produced p-nitrophenol was calculated.

Chain of human TNAP (P05186 18-524): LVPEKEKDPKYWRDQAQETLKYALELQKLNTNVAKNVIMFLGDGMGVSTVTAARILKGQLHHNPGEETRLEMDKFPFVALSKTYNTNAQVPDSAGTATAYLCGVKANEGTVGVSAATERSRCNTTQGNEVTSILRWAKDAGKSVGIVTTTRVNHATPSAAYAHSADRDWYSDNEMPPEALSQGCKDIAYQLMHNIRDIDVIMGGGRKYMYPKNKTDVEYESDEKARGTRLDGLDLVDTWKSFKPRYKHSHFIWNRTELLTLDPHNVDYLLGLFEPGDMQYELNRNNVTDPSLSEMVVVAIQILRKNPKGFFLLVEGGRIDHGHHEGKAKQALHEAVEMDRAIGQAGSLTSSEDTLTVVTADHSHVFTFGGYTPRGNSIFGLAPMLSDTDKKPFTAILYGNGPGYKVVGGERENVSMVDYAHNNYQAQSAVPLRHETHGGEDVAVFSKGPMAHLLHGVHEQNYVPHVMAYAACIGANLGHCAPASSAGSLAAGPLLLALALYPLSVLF

Consider `COc1ccc(Cl)cc1S(=O)(=O)[N-]c1cnc2c(c1)-c1nnc(C)n1CCO2.[K+]` [Example 2, Potassium [(5-chloro-2-methoxyphenyl)sulfonyl](3-methyl-5,6-dihydropyrido[3,2-f][1,2,4]triazolo[4,3-d][1,4]oxazepin-10-yl)azanide], for which the “Plasma ALP inhibition (6 h ave. inhibition %)” value in test [1] worked out at 34.4%.

In the case of `CCc1nnc2n1CCOc1ncc([N-]S(=O)(=O)c3cc(Cl)ccc3OC)cc1-2.[K+]` [Example 4, Potassium [(5-chloro-2-methoxyphenyl)sulfonyl](3-ethyl-5,6-dihydropyrido[3,2-f][1,2,4]triazolo[4,3-d][1,4]oxazepin-10-yl)azanide], the “Plasma ALP inhibition (6 h ave. inhibition %)” value in test [1] came to 40.7%.

In test [2], `O=C1c2cc(NS(=O)(=O)c3cc(F)ccc3OC(F)(F)F)cnc2OC[C@H]2C[C@@H](O)CN12` [Example 39, 5-fluoro-N-[(8R,9aR)-8-hydroxy-5-oxo-8,9,9a,10-tetrahydro-5H,7H-pyrido[3,2-f]pyrrolo[2,1-c][1,4]oxazepin-3-yl]-2-(trifluoromethoxy)benzenesulfonamide] displayed an IC50 of 2.4 nM.

Regarding `COc1ccc(Cl)cc1S(=O)(=O)Nc1cnc2c(c1)C(=O)N1CC[C@@H](O)[C@@H]1CO2` [Example 40, 5-chloro-N-[(9R,9aS)-9-hydroxy-5-oxo-8,9,9a,10-tetrahydro-5H,7H-pyrido[3,2-f]pyrrolo[2,1-c][1,4]oxazepin-3-yl]-2-methoxybenzenesulfonamide], half-maximal inhibition in test [2] (IC50) required 5.8 nM.

`COc1ccc(Cl)cc1S(=O)(=O)Nc1cnc2c(c1)C(=O)N1CC[C@H](O)[C@@H]1CO2` [Example 41, 5-chloro-N-[(9S,9aS)-9-hydroxy-5-oxo-8,9,9a,10-tetrahydro-5H,7H-pyrido[3,2-f]pyrrolo[2,1-c][1,4]oxazepin-3-yl]-2-methoxybenzenesulfonamide] registered a 50% inhibitory concentration (IC50) in test [2] of 0.4 nM.

Take `O=C1c2cc(NS(=O)(=O)c3cc(Cl)ccc3OC(F)(F)F)cnc2OC[C@H]2[C@@H](O)CCN12` [Example 42, 5-chloro-N-[(9S,9aS)-9-hydroxy-5-oxo-8,9,9a,10-tetrahydro-5H,7H-pyrido[3,2-f]pyrrolo[2,1-c][1,4]oxazepin-3-yl]-2-(trifluoromethoxy)benzenesulfonamide]: in test [2], half-maximal inhibition (IC50) required 0.4 nM.

In test [2], `COc1ccc(Cl)cc1S(=O)(=O)Nc1cnc2c(c1)C(=O)N1C[C@@H](F)C[C@@H]1CO2` [Example 44, 5-chloro-N-[(8S,9aR)-8-fluoro-5-oxo-8,9,9a,10-tetrahydro-5H,7H-pyrido[3,2-f]pyrrolo[2,1-c][1,4]oxazepin-3-yl]-2-methoxybenzenesulfonamide] gave an IC50 of 0.8 nM.

Turning to `COc1ccc(Cl)cc1S(=O)(=O)Nc1cnc2c(c1)C(=O)N1CC(F)(F)C[C@@H]1CO2` [Example 45, 5-chloro-N-[(9aR)-8,8-difluoro-5-oxo-8,9,9a,10-tetrahydro-5H,7H-pyrido[3,2-f]pyrrolo[2,1-c][1,4]oxazepin-3-yl]-2-methoxybenzenesulfonamide], 2 nM corresponded to half-maximal inhibition in test [2] (IC50).

In test [2], `COc1ccc(Cl)cc1S(=O)(=O)Nc1cnc2c(c1)C(=O)N1C[C@@H](OC)C[C@@H]1CO2` [Example 46, 5-chloro-2-methoxy-N-[(8S,9aR)-8-methoxy-5-oxo-8,9,9a,10-tetrahydro-5H,7H-pyrido[3,2-f]pyrrolo[2,1-c][1,4]oxazepin-3-yl]benzenesulfonamide] registered an IC50 of 0.5 nM.

Consider `CC(=O)O[C@H]1C[C@@H]2COc3ncc(NS(=O)(=O)c4cc(Cl)ccc4OC(F)(F)F)cc3C(=O)N2C1` [Example 47, (8S,9aR)-3-({[5-chloro-2-(trifluoromethoxy)phenyl]sulfonyl}amino)-5-oxo-8,9,9a,10-tetrahydro-5H,7H-pyrido[3,2-f]pyrrolo[2,1-c][1,4]oxazepin-8-yl acetate], for which it took 1.5 nM to reach half-maximal inhibition in test [2] (IC50).

The molecule `CNC(=O)O[C@H]1C[C@@H]2COc3ncc(NS(=O)(=O)c4cc(Cl)ccc4OC)cc3C(=O)N2C1` [Example 48, (8S,9aR)-3-{[(5-chloro-2-methoxyphenyl)sulfonyl]amino}-5-oxo-8,9,9a,10-tetrahydro-5H, 7H-pyrido[3,2-f]pyrrolo[2,1-c][1,4]oxazepin-8-yl methylcarbamate] returned an IC50 in test [2] of 0.6 nM.

Take `COC(=O)N[C@@H]1C[C@@H]2COc3ncc(NS(=O)(=O)c4cc(Cl)ccc4OC)cc3C(=O)N2C1` [Example 50, methyl [(8R,9aR)-3-{[(5-chloro-2-methoxyphenyl)sulfonyl]amino}-5-oxo-8,9,9a,10-tetrahydro-5H, 7H-pyrido[3,2-f]pyrrolo[2,1-c][1,4]oxazepin-8-yl]carbamate]: the half-maximal inhibitory concentration (IC50) in test [2] came out at 0.5 nM.

The molecule `COc1ccc(Cl)cc1S(=O)(=O)Nc1cnc2c(c1)CN1C(=O)CC[C@H]1CO2` [Example 52, 5-chloro-2-methoxy-N-[(9aS)-7-oxo-8,9,9a,10-tetrahydro-5H,7H-pyrido[3,2-f]pyrrolo[2,1-c][1,4]oxazepin-3-yl]benzenesulfonamide] had an IC50 in test [2] of 2.2 nM.

Take `COc1ccc(Cl)cc1S(=O)(=O)Nc1cnc2c(c1)CN1C(=O)[C@H](O)C[C@H]1CO2` [Example 53, 5-chloro-N-[(8R,9aS)-8-hydroxy-7-oxo-8,9,9a,10-tetrahydro-5H,7H-pyrido[3,2-f]pyrrolo[2,1-c][1,4]oxazepin-3-yl]-2-methoxybenzenesulfonamide]: in test [2], the IC50 is 4.3 nM.

`COc1ccc(Cl)cc1S(=O)(=O)Nc1cnc2c(c1)CN1C(=O)[C@@H](O)C[C@H]1CO2` [Example 54, 5-chloro-N-[(8S,9aS)-8-hydroxy-7-oxo-8,9,9a,10-tetrahydro-5H,7H-pyrido[3,2-f]pyrrolo[2,1-c][1,4]oxazepin-3-yl]-2-methoxybenzenesulfonamide] displayed an IC50 in test [2] of 1.1 nM.

`O=C1[C@@H](O)C[C@H]2COc3ncc(NS(=O)(=O)c4cc(Cl)ccc4OC(F)(F)F)cc3CN12` [Example 56, 5-chloro-N-[(8S,9aS)-8-hydroxy-7-oxo-8,9,9a,10-tetrahydro-5H,7H-pyrido[3,2-f]pyrrolo[2,1-c][1,4]oxazepin-3-yl]-2-(trifluoromethoxy)benzenesulfonamide] returned an IC50 in test [2] of 1.4 nM.

Molecule `COc1ccc(Cl)cc1S(=O)(=O)Nc1cnc2c(c1)CN1C(=O)OC[C@H]1CO2` [Example 58, 5-chloro-2-methoxy-N-[(9aR)-7-oxo-9a,10-dihydro-5H, 9H-[1,3]oxazolo[4,3-c]pyrido[3,2-f][1,4]oxazepin-3-yl]benzenesulfonamide] showed an IC50 in test [2] of 3.8 nM.

On to `COc1ccc(Cl)cc1S(=O)(=O)Nc1cnc2c(c1)CN1C(=O)CCC[C@H]1CO2` [Example 59, 5-chloro-2-methoxy-N-[(10aS)-7-oxo-7,8,9,10,10a, 11-hexahydro-5H-dipyrido[2,1-c:3′,2′-f][1,4]oxazepin-3-yl]benzenesulfonamide], for which the IC50 in test [2] turned out to be 1.4 nM.

On to `COc1ccc(Cl)cc1S(=O)(=O)Nc1cnc2c(c1)CN1C(=O)COC[C@H]1CO2` [Example 60, 5-chloro-2-methoxy-N-[(10aS)-7-oxo-7,8,10a,11-tetrahydro-5H,10H-[1,4]oxazino[3,4-c]pyrido[3,2-f][1,4]oxazepin-3-yl]benzenesulfonamide], for which the concentration for half-maximal inhibition (IC50) in test [2] turned out to be 3.3 nM.

In test [2], `CCOc1ccc(F)cc1S(=O)(=O)Nc1cnc2c(c1)CN1C(=O)COC[C@H]1CO2` [Example 61, 2-ethoxy-5-fluoro-N-[(10aS)-7-oxo-7,8,10a,11-tetrahydro-5H,10H-[1,4]oxazino[3,4-c]pyrido[3,2-f][1,4]oxazepin-3-yl]benzenesulfonamide] returned an IC50 of 0.6 nM.

Consider `O=C1COCC2COc3ncc(NS(=O)(=O)c4cc(Cl)ccc4OC(F)(F)F)cc3CN12` (stereo not shown) [Example 63], for which inhibition in test [2] was half-maximal at 1.4 nM (IC50).

For `COc1ccc(Cl)cc1S(=O)(=O)Nc1cnc2c(c1)CN1C(=O)CN(C)C[C@H]1CO2` [Example 64, 5-chloro-2-methoxy-N-[(10aS)-9-methyl-7-oxo-7,8,9,10,10a, 11-hexahydro-5H-pyrazino[2,1-c]pyrido[3,2-f][1,4]oxazepin-3-yl]benzenesulfonamide], in test [2], the IC50 was found to be 1.8 nM.
